IC50 data for 13 molecules are collected here from patent publication US20250215030A1, “STAT MODULATORS AND USES THEREOF” (Recludix Pharma, Inc., priority 2022, published 2025).

Structures are written as SMILES.

Test [1] concerns the target T1, Recombinant STAT3 protein (STAT3(G127-I722)) (Homo sapiens, UniProt P40763).
T1 construct: STAT3(G127-I722)
Kind of test: STAT3 Fluorescence Polarization (FP) Assay. The settings on record: STAT3(G127-I722) 25 nM, probe 5-FAM-GpYLPQTV-NH2 2 nM, 45-minute incubation. Type of test: binding. The method, then:
STAT3 Fluorescence Polarization (FP) Assay
An FP assay was developed to determine IC50 values for test substances. Recombinant STAT3 protein (STAT3(G127-I722)) at 25 nM was combined with a fluorescently labeled, phosphotyrosine peptide probe (5-FAM-GpYLPQTV-NH2) at 2 nM in FP buffer (10 mM HEPES pH 7.4, 50 mM NaCl, 1 mM EDTA, 0.05% Tween 20, 2 mM DTT). 50 μL of STAT3-probe mixture was added to serial diluted compounds in black, 96-well plates (Greiner BioOne 655076) to a final concentration of 1% DMSO. Reaction components were mixed, and FP was measured after 45-minute incubation at room temperature using a Tecan Spark multimode plate reader. FP signal (mP) was plotted against the log concentration of the test substances and IC50 values were calculated by nonlinear regression analysis using GraphPad Prism software. For STAT3 FP assay, A=≤100 nM; B=>100-1000 nM; C=>1-10 μM; and D=>10 μM.
In general terms: Fluorescence polarisation rises when a labelled molecule tumbles more slowly, as on binding a larger partner.

Test [2] addresses T2, Recombinant STAT6 protein (STAT6(W123-T658)) (Homo sapiens, UniProt P42226).
T2 construct: STAT6(W123-T658)
T2 sequence (P42226 123-658): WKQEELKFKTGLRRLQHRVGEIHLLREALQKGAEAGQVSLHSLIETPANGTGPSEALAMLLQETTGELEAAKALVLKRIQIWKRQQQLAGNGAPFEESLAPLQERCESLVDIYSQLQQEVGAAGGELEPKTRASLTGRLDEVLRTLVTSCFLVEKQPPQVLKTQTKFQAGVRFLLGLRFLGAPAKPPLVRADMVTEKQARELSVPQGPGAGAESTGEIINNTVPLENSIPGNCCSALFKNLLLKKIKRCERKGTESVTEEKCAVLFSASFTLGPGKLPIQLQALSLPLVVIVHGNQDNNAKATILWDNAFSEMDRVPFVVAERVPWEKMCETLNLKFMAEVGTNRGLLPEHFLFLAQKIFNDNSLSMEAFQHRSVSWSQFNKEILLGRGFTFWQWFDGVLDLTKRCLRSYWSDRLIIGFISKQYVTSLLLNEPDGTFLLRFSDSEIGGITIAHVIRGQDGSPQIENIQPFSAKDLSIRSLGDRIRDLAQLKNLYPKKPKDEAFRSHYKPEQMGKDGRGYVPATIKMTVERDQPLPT
Kind of test: STAT6 Fluorescence Polarization (FP) Assay. Type of test: binding. The settings on record: STAT6(W123-T658) 250 nM, probe 5-FAM-ApYKPFQDLI-NH2 2 nM, 45-minute incubation. The procedure: STAT6 Fluorescence Polarization (FP) Assay
An FP assay was developed to determine IC50 values for test substances. Recombinant STAT6 protein (STAT6(W123-T658)) at 250 nM was combined with a fluorescently labeled, phosphotyrosine peptide probe (5-FAM-ApYKPFQDLI-NH2) at 2 nM in FP buffer (10 mM HEPES pH 7.4, 50 mM NaCl, 1 mM EDTA, 0.05% Tween 20, 2 mM DTT). 50 μL of STAT6-probe mixture was added to serial diluted compounds in black, 96-well plates (Greiner BioOne 655076) to a final concentration of 1% DMSO. Reaction components were mixed, and FP was measured after 45-minute incubation at room temperature using a Tecan Spark multimode plate reader. FP signal (mP) was plotted against the log concentration of the test substances and IC50 values were calculated by nonlinear regression analysis using GraphPad Prism software. For STAT6 FP assay, A=≤300 nM; B=>300-3000 nM; C=>3-30 μM; and D=>30 μM.

T1 sequence (P40763 127-722, species assumed): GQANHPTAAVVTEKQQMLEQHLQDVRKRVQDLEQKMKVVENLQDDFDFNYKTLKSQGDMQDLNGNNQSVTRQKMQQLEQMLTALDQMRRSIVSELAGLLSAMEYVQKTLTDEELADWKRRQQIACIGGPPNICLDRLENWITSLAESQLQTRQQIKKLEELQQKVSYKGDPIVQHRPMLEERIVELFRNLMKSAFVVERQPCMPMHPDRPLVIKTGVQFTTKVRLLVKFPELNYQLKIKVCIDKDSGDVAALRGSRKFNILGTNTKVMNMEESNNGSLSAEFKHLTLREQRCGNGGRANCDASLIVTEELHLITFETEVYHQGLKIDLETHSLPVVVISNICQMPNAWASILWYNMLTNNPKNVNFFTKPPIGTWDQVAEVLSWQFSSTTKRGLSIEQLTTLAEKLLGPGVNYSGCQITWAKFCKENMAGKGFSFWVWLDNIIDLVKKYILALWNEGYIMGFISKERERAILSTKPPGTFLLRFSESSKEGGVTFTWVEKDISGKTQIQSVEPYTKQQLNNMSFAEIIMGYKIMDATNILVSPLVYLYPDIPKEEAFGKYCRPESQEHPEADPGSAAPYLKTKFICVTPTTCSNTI

As usually defined, the IC50 is the concentration that gives 50% inhibition. Take `O=C(N[C@H]1C[C@@H]2C[C@@H]2C[C@H]2CC[C@@H](C(=O)N3CC[C@@H](N4CCOCC4)C3)N2C1=O)c1cc2cc(C(F)(F)P(=O)(O)O)ccc2s1` [Compound 16, (difluoro(2-(((3S,6S,7aS,8aR,9aR)-3-((R)-3-morpholinopyrrolidine-1-carbonyl)-5-oxodecahydro-1H-cyclopropa[d]pyrrolo[1,2-a]azocin-6-yl)carbamoyl)benzo[b]thiophen-5-yl)methyl)phosphonic acid]: the IC50 in test [1] was in the range of 100 to 1000 nM; in test [2] it was 3000 to 30000 nM.
For the molecule `O=C(N[C@H]1C[C@@H]2C[C@@H]2C[C@H]2CC[C@@H](C(=O)N3CC[C@H](N4CCOCC4)C3)N2C1=O)c1cc2cc(C(F)(F)P(=O)(O)O)ccc2s1` [Compound 17, (difluoro(2-(((3S,6S,7aS,8aR,9aR)-3-((S)-3-morpholinopyrrolidine-1-carbonyl)-5-oxodecahydro-1H-cyclopropa[d]pyrrolo[1,2-a]azocin-6-yl)carbamoyl)benzo[b]thiophen-5-yl)methyl)phosphonic acid], the figures for the IC50 in test [1] and in test [2] were 100 to 1000 nM and 3000 to 30000 nM, respectively.
For `O=C(N[C@H]1C[C@@H]2C[C@@H]2C[C@H]2CC[C@@H](C(=O)N3CC(C(=O)N4CCOCC4)C3)N2C1=O)c1cc2cc(C(F)P(=O)(O)O)ccc2s1` (stereo partly drawn) [Compound 18, (fluoro(2-(((3S,6S,7aS,8aR,9aR)-3-(3-(morpholine-4-carbonyl)azetidine-1-carbonyl)-5-oxodecahydro-1H-cyclopropa[d]pyrrolo[1,2-a]azocin-6-yl)carbamoyl)benzo[b]thiophen-5-yl)methyl)phosphonic acid], the IC50 in test [1] was below 100 nM; in test [2] it was 3000 to 30000 nM.
Turning to `C[C@@H]1[C@@H](n2ccnc2)CN1C(=O)[C@@H]1CC[C@@H]2C[C@H]3C[C@H]3C[C@H](NC(=O)c3cc4cc(C(F)(F)P(=O)(O)O)ccc4s3)C(=O)N21` [Compound 19, ((2-(((3S,6S,7aS,8aR,9aR)-3-((2R,3S)-3-(1H-imidazol-1-yl)-2-methylazetidine-1-carbonyl)-5-oxodecahydro-1H-cyclopropa[d]pyrrolo[1,2-a]azocin-6-yl)carbamoyl)benzo[b]thiophen-5-yl)difluoromethyl)phosphonic acid], the values for the IC50 in test [1] and in test [2] were below 100 nM and 3000 to 30000 nM, respectively.
`O=C(NC1C[C@@H]2C[C@@H]2C[C@H]2CC[C@@H](C(=O)N3CC(C(=O)N4CCOCC4)C3)N2C1=O)c1cc2cc(CP(=O)(O)O)ccc2s1` (stereo partly drawn) [Compound 20, ((2-(((3S,7aS,8aR,9aR)-3-(3-(morpholine-4-carbonyl)azetidine-1-carbonyl)-5-oxodecahydro-1H-cyclopropa[d]pyrrolo[1,2-a]azocin-6-yl)carbamoyl)benzo[b]thiophen-5-yl)methyl)phosphonic acid]: the IC50 in test [1] was 1000 to 10000 nM; in test [2], above 30000 nM.
As for `O=C(N[C@H]1C[C@H]2C[C@H]2C[C@H]2CC[C@@H](C(=O)N3CC(c4cccnc4)C3)N2C1=O)c1cc2cc([C@H](F)P(=O)(O)O)ccc2s1` [Compound 21, ((R)-fluoro(2-(((3S,6S,7aR,8aS,9aR)-5-oxo-3-(3-(pyridin-3-yl)azetidine-1-carbonyl)decahydro-1H-cyclopropa[d]pyrrolo[1,2-a]azocin-6-yl)carbamoyl)benzo[b]thiophen-5-yl)methyl)phosphonic acid], the IC50 in test [1] was below 100 nM; in test [2] it was 3000 to 30000 nM.
Consider `O=C(N[C@H]1C[C@H]2C[C@H]2C[C@H]2CC[C@@H](C(=O)N3CC(c4cccnc4)C3)N2C1=O)c1cc2cc(CP(=O)(O)O)ccc2s1` [Compound 22, ((2-(((3S,6S,7aR,8aS,9aR)-5-oxo-3-(3-(pyridin-3-yl)azetidine-1-carbonyl)decahydro-1H-cyclopropa[d]pyrrolo[1,2-a]azocin-6-yl)carbamoyl)benzo[b]thiophen-5-yl)methyl)phosphonic acid], for which the concentration for half-maximal inhibition (IC50) in test [1] was 100 to 1000 nM; in test [2] it was above 30000 nM.
In the same order, the values of `O=C(N[C@H]1C[C@H]2C[C@H]2C[C@H]2CC[C@@H](C(=O)N3CC(c4ccccn4)C3)N2C1=O)c1cc2cc(CP(=O)(O)O)ccc2s1` [Compound 23, ((2-(((3S,6S,7aR,8aS,9aR)-5-oxo-3-(3-(pyridin-2-yl)azetidine-1-carbonyl)decahydro-1H-cyclopropa[d]pyrrolo[1,2-a]azocin-6-yl)carbamoyl)benzo[b]thiophen-5-yl)methyl)phosphonic acid] are 100 to 1000 nM and above 30000 nM.
The like results for `O=C(N[C@H]1C[C@@H]2C[C@@H]2C[C@H]2CC[C@@H](C(=O)N3CC(n4ccnc4)C3)N2C1=O)c1cc2cc(CP(=O)(O)O)ccc2s1` [Compound 24, ((2-(((3S,6S,7aS,8aR,9aR)-3-(3-(1H-imidazol-1-yl)azetidine-1-carbonyl)-5-oxodecahydro-1H-cyclopropa[d]pyrrolo[1,2-a]azocin-6-yl)carbamoyl)benzo[b]thiophen-5-yl)methyl)phosphonic acid] were, in that order, 100 to 1000 nM and above 30000 nM.
The like results for `O=C(N[C@H]1C[C@H]2C[C@H]2C[C@H]2CC[C@@H](C(=O)N3CC(n4ccnc4)C3)N2C1=O)c1cc2cc(CP(=O)(O)O)ccc2s1` [Compound 25, ((2-(((3S,6S,7aR,8aS,9aR)-3-(3-(1H-imidazol-1-yl)azetidine-1-carbonyl)-5-oxodecahydro-1H-cyclopropa[d]pyrrolo[1,2-a]azocin-6-yl)carbamoyl)benzo[b]thiophen-5-yl)methyl)phosphonic acid] were, in that order, 100 to 1000 nM and above 30000 nM.
On to `NC(=O)Cc1cc(-c2ccccc2)ccc1NC(=O)[C@@H]1CC[C@@H]2C[C@H]3C[C@H]3C[C@H](NC(=O)c3cc4cc(C(F)(F)P(=O)(O)O)ccc4s3)C(=O)N21` [Compound 26, ((2-(((3S,6S,7aS,8aR,9aR)-3-((3-(2-amino-2-oxoethyl)-[1,1′-biphenyl]-4-yl)carbamoyl)-5-oxodecahydro-1H-cyclopropa[d]pyrrolo[1,2-a]azocin-6-yl)carbamoyl)benzo[b]thiophen-5-yl)difluoromethyl)phosphonic acid], for which the IC50 is below 100 nM in test [1] and 300 to 3000 nM in test [2].
In the same order, the values of `COC1(c2nccn2C)CN(C(=O)[C@@H]2CC[C@@H]3C[C@@H]4[C@H](C[C@H](NC(=O)c5cc6cc(C(F)(F)P(=O)(O)O)ccc6s5)C(=O)N32)C4(F)F)C1` [Compound 29, ((2-(((3S,6S,7aS,8aR,9aR)-8,8-difluoro-3-(3-methoxy-3-(1-methyl-1H-imidazol-2-yl)azetidine-1-carbonyl)-5-oxodecahydro-1H-cyclopropa[d]pyrrolo[1,2-a]azocin-6-yl)carbamoyl)benzo[b]thiophen-5-yl)difluoromethyl)phosphonic acid] are 100 to 1000 nM and 3000 to 30000 nM.
The like results for `O=C(N[C@H]1C[C@H]2[C@@H](C[C@H]3CC[C@@H](C(=O)N4CC(C(=O)N5CCOCC5)C4)N3C1=O)C2(F)F)c1cc2cc(C(F)(F)P(=O)(O)O)ccc2s1` [Compound 30, ((2-(((3S,6S,7aS,8aR,9aR)-8,8-difluoro-3-(3-(morpholine-4-carbonyl)azetidine-1-carbonyl)-5-oxodecahydro-1H-cyclopropa[d]pyrrolo[1,2-a]azocin-6-yl)carbamoyl)benzo[b]thiophen-5-yl)difluoromethyl)phosphonic acid] were, in that order, below 100 nM and 3000 to 30000 nM.
